Assay results: article PMC9366597 (RSC Advances, 2022)
Read-outs that look alike come from different tables or passages of the source.

How the values were obtained:
[1] = PAMPA-BBB permeation assay; conditions: for Prediction (PAMPA-BBB) (CNS+, CNS−): class from Pe; for Papp at 20 h: PAMPA, pH 7.4
COX-2 = biological target: T1, COX-2 (Homo sapiens, UniProt P35354); assay: biochemical; format: biochemical
T1 sequence (P35354 18-604): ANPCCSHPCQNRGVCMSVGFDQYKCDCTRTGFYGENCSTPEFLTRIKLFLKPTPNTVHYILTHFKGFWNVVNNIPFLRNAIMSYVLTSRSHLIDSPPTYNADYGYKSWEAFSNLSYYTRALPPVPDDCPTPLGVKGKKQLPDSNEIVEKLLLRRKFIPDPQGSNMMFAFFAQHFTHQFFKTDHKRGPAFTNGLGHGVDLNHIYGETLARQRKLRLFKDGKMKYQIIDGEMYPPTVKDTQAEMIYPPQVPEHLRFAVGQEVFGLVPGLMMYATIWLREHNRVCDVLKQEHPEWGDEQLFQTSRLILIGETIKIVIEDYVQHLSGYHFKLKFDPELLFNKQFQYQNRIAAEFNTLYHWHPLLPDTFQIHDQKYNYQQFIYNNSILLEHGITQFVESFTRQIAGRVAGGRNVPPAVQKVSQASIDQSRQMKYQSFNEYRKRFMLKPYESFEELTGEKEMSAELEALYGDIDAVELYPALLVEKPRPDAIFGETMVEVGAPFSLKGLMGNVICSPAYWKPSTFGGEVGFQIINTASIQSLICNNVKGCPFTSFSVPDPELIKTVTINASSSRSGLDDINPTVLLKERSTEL

hMAO-A = biological target: T2, hMAO-A (Homo sapiens, UniProt P21397); assay: MAO-A inhibition, fluorometric method; format: biochemical
T2 sequence (P21397 1-527): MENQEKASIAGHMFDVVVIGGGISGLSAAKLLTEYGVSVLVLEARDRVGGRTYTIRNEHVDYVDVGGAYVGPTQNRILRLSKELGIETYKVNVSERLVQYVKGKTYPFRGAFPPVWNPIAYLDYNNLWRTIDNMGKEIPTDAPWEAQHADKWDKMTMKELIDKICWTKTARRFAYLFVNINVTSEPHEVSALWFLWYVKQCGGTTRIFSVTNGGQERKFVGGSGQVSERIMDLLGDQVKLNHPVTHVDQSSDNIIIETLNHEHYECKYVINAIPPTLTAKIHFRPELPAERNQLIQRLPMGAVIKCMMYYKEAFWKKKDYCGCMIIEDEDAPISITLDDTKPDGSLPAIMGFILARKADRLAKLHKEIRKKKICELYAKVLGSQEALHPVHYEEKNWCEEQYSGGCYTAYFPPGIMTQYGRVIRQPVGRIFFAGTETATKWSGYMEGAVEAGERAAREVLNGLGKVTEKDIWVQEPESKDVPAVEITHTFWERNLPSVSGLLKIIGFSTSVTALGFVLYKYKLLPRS

eqBChE = eqBChE (Equus caballus, UniProt P81908); assay: BChE inhibition, modified Ellman's method; format: biochemical, Equine
eqBChE, sequence (P81908 whole entry): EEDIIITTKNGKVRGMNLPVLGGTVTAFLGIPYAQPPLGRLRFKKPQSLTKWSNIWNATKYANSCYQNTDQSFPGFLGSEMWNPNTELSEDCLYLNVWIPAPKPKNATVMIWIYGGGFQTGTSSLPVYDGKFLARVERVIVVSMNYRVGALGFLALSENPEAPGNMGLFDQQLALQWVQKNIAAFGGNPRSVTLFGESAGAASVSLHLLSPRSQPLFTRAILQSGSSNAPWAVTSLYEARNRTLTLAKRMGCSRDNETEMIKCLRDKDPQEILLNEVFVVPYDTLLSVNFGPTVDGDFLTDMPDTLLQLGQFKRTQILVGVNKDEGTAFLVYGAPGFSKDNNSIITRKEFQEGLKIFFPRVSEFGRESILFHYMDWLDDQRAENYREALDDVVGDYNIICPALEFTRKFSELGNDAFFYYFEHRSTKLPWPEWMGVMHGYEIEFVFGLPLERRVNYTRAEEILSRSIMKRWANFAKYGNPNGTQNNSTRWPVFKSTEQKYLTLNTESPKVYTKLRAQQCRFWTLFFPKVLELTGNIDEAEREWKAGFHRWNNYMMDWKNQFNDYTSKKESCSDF

hMAO-B = biological target: T3, hMAO-B (Homo sapiens, UniProt P27338); assay: MAO-B inhibition, fluorometric method; format: biochemical; conditions: for SI (IC50 hMAO-A/IC50 hMAO-B): selectivity index toward hMAO-B
T3 sequence (P27338 1-520): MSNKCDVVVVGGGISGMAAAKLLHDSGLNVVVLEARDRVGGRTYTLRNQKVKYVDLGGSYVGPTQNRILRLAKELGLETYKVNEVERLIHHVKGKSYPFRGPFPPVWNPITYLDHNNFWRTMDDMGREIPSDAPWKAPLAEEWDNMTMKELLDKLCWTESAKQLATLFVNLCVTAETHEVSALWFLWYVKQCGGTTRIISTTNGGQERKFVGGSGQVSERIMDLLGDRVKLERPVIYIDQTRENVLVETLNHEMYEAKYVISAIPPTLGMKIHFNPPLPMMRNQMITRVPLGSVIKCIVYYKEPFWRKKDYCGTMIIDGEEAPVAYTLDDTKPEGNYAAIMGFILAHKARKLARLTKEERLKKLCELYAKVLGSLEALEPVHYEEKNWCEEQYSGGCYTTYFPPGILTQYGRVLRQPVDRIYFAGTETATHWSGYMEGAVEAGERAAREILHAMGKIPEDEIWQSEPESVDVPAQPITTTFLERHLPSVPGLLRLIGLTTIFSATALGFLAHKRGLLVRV

5-LOX = biological target: T4, 5-LOX (Glycine max, UniProt P08170); assay: 5-LOX inhibition assay; format: biochemical, soybean
T4 sequence (P08170 1-839): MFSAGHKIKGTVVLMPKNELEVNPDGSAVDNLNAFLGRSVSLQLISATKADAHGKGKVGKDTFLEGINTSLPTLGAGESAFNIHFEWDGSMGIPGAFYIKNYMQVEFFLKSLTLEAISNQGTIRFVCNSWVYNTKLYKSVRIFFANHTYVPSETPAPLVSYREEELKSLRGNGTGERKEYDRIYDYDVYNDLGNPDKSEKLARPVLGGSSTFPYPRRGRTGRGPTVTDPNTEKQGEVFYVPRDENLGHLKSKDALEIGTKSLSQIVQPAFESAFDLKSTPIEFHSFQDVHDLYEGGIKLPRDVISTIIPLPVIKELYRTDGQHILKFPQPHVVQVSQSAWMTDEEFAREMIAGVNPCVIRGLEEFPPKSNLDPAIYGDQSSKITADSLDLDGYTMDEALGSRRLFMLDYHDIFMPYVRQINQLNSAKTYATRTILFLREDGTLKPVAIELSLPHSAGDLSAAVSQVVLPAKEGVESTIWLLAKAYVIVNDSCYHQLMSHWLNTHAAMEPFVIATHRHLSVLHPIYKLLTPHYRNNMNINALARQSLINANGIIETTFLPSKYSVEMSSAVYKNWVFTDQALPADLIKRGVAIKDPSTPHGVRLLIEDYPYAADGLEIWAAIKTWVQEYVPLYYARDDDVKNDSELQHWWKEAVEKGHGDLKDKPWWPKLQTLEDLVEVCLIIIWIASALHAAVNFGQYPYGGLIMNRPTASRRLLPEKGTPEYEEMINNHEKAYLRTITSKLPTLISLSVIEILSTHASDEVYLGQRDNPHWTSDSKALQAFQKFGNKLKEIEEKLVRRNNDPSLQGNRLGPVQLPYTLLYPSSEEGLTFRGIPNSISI

eeAChE = eeAChE (Electrophorus electricus, UniProt O42275); assay: AChE inhibition, modified Ellman's method; format: biochemical, Electrophorous electricus; conditions: for SI (IC50 eqBChE/IC50 eeAChE): selectivity index toward eeAChE
eeAChE, sequence (O42275 24-633): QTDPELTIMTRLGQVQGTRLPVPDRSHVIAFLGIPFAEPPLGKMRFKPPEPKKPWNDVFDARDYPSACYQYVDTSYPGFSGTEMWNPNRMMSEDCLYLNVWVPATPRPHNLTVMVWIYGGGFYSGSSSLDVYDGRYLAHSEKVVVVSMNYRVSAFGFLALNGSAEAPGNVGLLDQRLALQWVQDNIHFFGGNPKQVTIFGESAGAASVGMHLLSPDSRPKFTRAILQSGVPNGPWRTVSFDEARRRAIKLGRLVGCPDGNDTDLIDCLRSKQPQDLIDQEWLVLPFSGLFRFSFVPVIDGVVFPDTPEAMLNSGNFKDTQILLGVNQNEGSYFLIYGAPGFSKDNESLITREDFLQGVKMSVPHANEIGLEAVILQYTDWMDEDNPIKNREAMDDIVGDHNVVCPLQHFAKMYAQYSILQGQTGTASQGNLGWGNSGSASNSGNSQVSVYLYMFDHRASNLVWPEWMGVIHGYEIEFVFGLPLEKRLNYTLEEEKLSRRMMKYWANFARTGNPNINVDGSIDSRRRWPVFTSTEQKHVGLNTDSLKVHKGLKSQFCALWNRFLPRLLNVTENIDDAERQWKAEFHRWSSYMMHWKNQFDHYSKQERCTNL

[2] = tested on: neuroblastoma SH-SY5Y cells; assay: MTT assay for neurotoxicity; format: cell-based; conditions: 1, 10, 20, 40 and 80 μM, incubation for 48 hours
[3] = In vivo acute toxicity study; conditions: doses ranging from 50 to 2000 mg kg^−1 body weight

Row | Compound | Prediction (PAMPA-BBB) (CNS+, CNS−) [1] | IC50 (COX-2) | IC50 (hMAO-A) | IC50 (eqBChE) | IC50 (hMAO-B) | SI (IC50 hMAO-A/IC50 hMAO-B) (hMAO-B) | IC50 (5-LOX) | IC50 (eeAChE) | SI (IC50 eqBChE/IC50 eeAChE) (eeAChE) | Neurotoxicity (cell viability, MTT) [2] | Papp at 20 h [1] | Acute toxicity outcome [3] | IC50 (COX-2; read-out: IC50 (μM) ± SEM COX-2, NA = no activity found in tested concentration) | IC50 (hMAO-A; read-out: IC50 (μM) ± SEM hMAO-A) | Permeability (PAMPA-BBB) Pe(tested) ([1]; pH 7.4, 20 hours, room temperature) | IC50 (eqBChE; read-out: IC50 (μM) ± SEM eqBChE) | IC50 (hMAO-B; read-out: IC50 (μM) ± SEM hMAO-B) | IC50 (5-LOX; read-out: IC50 (μM) ± SEM 5-LOX) | IC50 (eeAChE; read-out: IC50 (μM) ± SEM eeAChE)
1 | Cc1nnc2n1-c1ccc(Cl)cc1C(c1ccccc1)=NC2 [Alprazolam, reference compound] | CNS+ (‘CNS+’ (prediction of high BBB permeation); Pe (10^−6 cm s^−1) > 4.39) | – | – | – | – | – | – | – | – | – | – | – | – | – | – | – | – | – | –
2 | Sc1nnc(Cc2ccccc2Nc2c(Cl)cccc2Cl)n1-c1ccc(Cl)c(Cl)c1 [Compound 12, 5-(2-(2,6-dichlorophenylamino)benzyl)-4-(3,4 dichlorophenyl)-4H-1,2,4-triazole-3-thiol] | – | 0.69 ± 0.13 µM | 11.3 ± 1.01 µM | 56.4 ± 1.28 µM | 13.1 ± 1.22 µM | 0.8 | 75.5 ± 1.57 µM | 2.58 ± 0.41 µM | 21.8 | – | – | – | – | – | – | – | – | – | –
3 | NS(=O)(=O)c1ccc(NCSc2nnc(Cc3ccccc3Nc3c(Cl)cccc3Cl)n2-c2ccc(Cl)c(Cl)c2)cc1 [Compound 15, 4-((5-(2-(2,6-dichlorophenylamino)benzyl)-4-(3,4-dichlorophenyl)-4H-1,2,4-triazol-3-ylthio)methylamino)benzenesulfonamide] | CNS+ (‘CNS+’ (prediction of high BBB permeation); Pe (10^−6 cm s^−1) > 4.39) | 0.16 ± 0.04 µM | 1.21 ± 0.07 µM | 2.99 ± 0.33 µM | 0.89 ± 0.33 µM | 1.3 | 3.42 ± 0.21 µM | 0.11 ± 0.01 µM | 27.2 | low neurotoxicity | 6.36 ± 0.3 ×10⁻⁶ cm/s | all animals were found alive | – | – | – | – | – | – | –
4 | COc1ccc(C(=O)CC2CC(=O)N(CCCSc3nnc(Cc4ccccc4Nc4c(Cl)cccc4Cl)n3-c3ccc(Cl)c(Cl)c3)C2=O)cc1 (stereo not shown) [Compound 31, 1-(3-((4-(3,4-Dichlorophenyl)-5-(2-((2,6-dichlorophenyl)amino)benzyl)-4H-1,2,4-triazol-3-yl)thio)propyl)-3-(2-(4-methoxyphenyl)-2-oxoethyl)pyrrolidine-2,5-dione] | – | – | 4.63 ± 0.31 µM | 48.1 ± 1.51 µM | 0.024 ± 0.001 µM | 193 | 51.3 ± 1.37 µM | 0.08 ± 0.01 µM | 601.2 | – | – | all animals were found alive | – | – | – | – | – | – | –
5 | O=C(CC1CC(=O)N(CCCSc2nnc(Cc3ccccc3Nc3c(Cl)cccc3Cl)n2-c2ccc(Cl)c(Cl)c2)C1=O)c1ccccc1 (stereo not shown) [Compound 32, 1-(3-((4-(3,4-Dichlorophenyl)-5-(2-((2,6-dichlorophenyl)amino)benzyl)-4H-1,2,4-triazol-3-yl)thio)propyl)-3-(2-oxo-2-phenylethyl)pyrrolidine-2,5-dione] | – | – | 6.48 ± 0.39 µM | 3.39 ± 0.83 µM | 0.106 ± 0.004 µM | 61.1 | 48.3 ± 1.42 µM | 0.39 ± 0.08 µM | 8.7 | – | – | – | – | – | – | – | – | – | –
6 | NS(=O)(=O)c1ccc(N2N=C(c3ccc(NC(=O)Cc4ccccc4Nc4c(Cl)cccc4Cl)cc3)CC2c2ccc(Cl)cc2)cc1 (stereo not shown) [Compound 39, N-{4-[5-(4-chlorophenyl)-1-(4-sulfamoylphenyl)-4,5-dihydro-1H-pyrazol-3-yl]phenyl}-2-{2-[(2,6-dichlorophenyl)amino]phenyl}acetamide] | CNS+ (‘CNS+’ (prediction of high BBB permeation); Pe (10^−6 cm s^−1) > 4.39) | 0.6 ± 0.03 µM | 0.61 ± 0.08 µM | 0.91 ± 0.16 µM | 0.01 ± 0.001 µM | 61 | 0.98 ± 0.01 µM | 0.03 ± 0.01 µM | 30.33 | no neurotoxicity | 7.55 ± 0.14 ×10⁻⁶ cm/s | all animals were found alive | – | – | – | – | – | – | –
7 | CCn1cc(C(=O)O)c(=O)c2cc(F)c(N3CCNC(C)C3)c(F)c21 (stereo not shown) [Lomefloxacin, reference compound] | CNS− (‘CNS−’ (prediction of low BBB permeation); Pe (10^−6 cm s^−1) < 1.78) | – | – | – | – | – | – | – | – | – | – | – | – | – | – | – | – | – | –
8 | N-(2-((5-(4-(4aH-Phenothiazin-10(10aH)-yl)butylthio)-4-(3,4-dichlorophenyl)-4H-1,2,4-triazol-3-yl)methyl)phenyl)-2,6-dichlorobenzenamine [Compound 33] | CNS+ (‘CNS+’ (prediction of high BBB permeation); Pe (10^−6 cm s^−1) > 4.39) | – | – | – | – | 65.7 | – | – | 117.8 | no neurotoxicity | – | all animals were found alive | 23 ± 0.92 µM | 8.55 ± 0.26 µM | 9.05 ± 0.20 10^−6 cm s^−1 | 5.89 ± 1 µM | 0.13 ± 0.01 µM | 9.11 ± 0.08 µM | 0.05 µM
